Laboratory results taken from BindingDB's records for doi:10.1016/s0960-894x(98)00175-9 (Dupont Pharmaceuticals, 1998).

Biological target: T1, Dimer of Gag-Pol polyprotein [489-587] (Human immunodeficiency virus 1, UniProt P12497)
T1 construct: 489-587
Assay: Protease Inhibition Assay
Settings: pH 5.5; 37 °C
Description: Inhibition of HIV protease was measured by assay of the cleavage of a fluorescent peptide substrate. The fluorescent product (2-aminobenzoyl-Ala-Thr-His-Gln-Val-Tyr) was separated from the fluorescent substrate by anion-exchange HPLC on a Mono-Q anion-exchange column (Pharmacia), and fluorescence was monitored at an excitation wavelength of 330 nm and an emission wavelength of 430 nm. Ki values for inhibitor binding were estimated at fixed concentrations of substrate and inhibitor from fractional activity measurements by use of the modified Michaelis-Menten equation.

SMILES	Ki
CSCC[C@@H]1[C@H](O)[C@@H](O)[C@@H](CCSC)N(Cc2ccc(CO)cc2)C(=O)N1Cc1ccc(CO)cc1 [(4R,5S,6S,7R)-Hexahydro-5,6-dihydroxy-1,3-bis-[[4-(hydroxymethyl)phenyl]methyl]-4,7-bis[2-(methylthio)ethyl]-2H-1,3-diazapin-2-one]	3900 nM
O=C1N(Cc2ccc(CO)cc2)[C@H](CC2CCCCC2)[C@H](O)[C@@H](O)[C@@H](CC2CCCCC2)N1Cc1ccc(CO)cc1 [(4R,5S,6S,7R)-4,7-bis(cyclohexylmethyl)-5,6-dihydroxy-1,3-bis({[4-(hydroxymethyl)phenyl]methyl})-1,3-diazepan-2-one]	32 nM
O=C1N(Cc2ccc(CO)cc2)[C@H](Cc2ccc(F)c(F)c2)[C@H](O)[C@@H](O)[C@@H](Cc2ccc(F)c(F)c2)N1Cc1ccc(CO)cc1 [(4R,5S,6S,7R)-4,7-bis[(3,4-difluorophenyl)methyl]-5,6-dihydroxy-1,3-bis({[4-(hydroxymethyl)phenyl]methyl})-1,3-diazepan-2-one]	0.47 nM
O=C1N(Cc2ccc(CO)cc2)[C@H](Cc2ccncc2)[C@H](O)[C@@H](O)[C@@H](Cc2ccncc2)N1Cc1ccc(CO)cc1 [(4R,5S,6S,7R)-5,6-dihydroxy-1,3-bis({[4-(hydroxymethyl)phenyl]methyl})-4,7-bis(pyridin-4-ylmethyl)-1,3-diazepan-2-one]	4.8 nM
O=C(Nc1nc2ccccc2[nH]1)c1cccc(CN2C(=O)N(Cc3cccc(C(=O)Nc4nc5ccccc5[nH]4)c3)[C@H](Cc3ccccc3)[C@H](O)[C@@H](O)[C@H]2Cc2ccccc2)c1 [N-(1H-1,3-benzodiazol-2-yl)-3-{[(4R,5S,6S,7R)-3-{[3-(1H-1,3-benzodiazol-2-ylcarbamoyl)phenyl]methyl}-4,7-dibenzyl-5,6-dihydroxy-2-oxo-1,3-diazepan-1-yl]methyl}benzamide]	0.024 nM
COc1ccc(C[C@@H]2[C@H](O)[C@@H](O)[C@@H](Cc3ccc(OC)cc3)N(Cc3ccc(CO)cc3)C(=O)N2Cc2ccc(CO)cc2)cc1 [(4R,5S,6S,7R)-Hexahydro-5,6-dihydroxy-1,3-bis-[[4-(hydroxymethyl)phenyl]methyl]-4,7-bis[(4-methoxyphenyl)methyl]-2H-1,3-diazapin-2-one]	0.24 nM
CC(C)C[C@@H]1[C@H](O)[C@@H](O)[C@@H](CC(C)C)N(Cc2ccc(CO)cc2)C(=O)N1Cc1ccc(CO)cc1 [(4R,5S,6S,7R)-5,6-dihydroxy-1,3-bis({[4-(hydroxymethyl)phenyl]methyl})-4,7-bis(2-methylpropyl)-1,3-diazepan-2-one]	38 nM
O=C1N(CC2CC2)[C@H](Cc2cccs2)[C@H](O)[C@@H](O)[C@@H](Cc2cccs2)N1CC1CC1 [(4R,5S,6S,7R)-Hexahydro-5,6-dihydroxy-1,3-bis-(cyclopropylmethyl)-4,7-bis(2-thienylmethyl)-2H-1,3-diazapin-2-one]	9.1 nM
COc1cccc(C[C@@H]2[C@H](O)[C@@H](O)[C@@H](Cc3cccc(OC)c3)N(Cc3ccc(CO)cc3)C(=O)N2Cc2ccc(CO)cc2)c1 [(4R,5S,6S,7R)-5,6-dihydroxy-1,3-bis({[4-(hydroxymethyl)phenyl]methyl})-4,7-bis[(3-methoxyphenyl)methyl]-1,3-diazepan-2-one]	0.11 nM
O=C1N(Cc2ccc(CO)cc2)[C@H](Cc2ccc(F)cc2)[C@H](O)[C@@H](O)[C@@H](Cc2ccc(F)cc2)N1Cc1ccc(CO)cc1 [(4R,5S,6S,7R)-Hexahydro-5,6-dihydroxy-1,3-bis-[[4-(hydroxymethyl)phenyl]methyl]-4,7-bis[(4-fluorophenyl)methyl]-2H-1,3-diazapin-2-one]	0.44 nM
